As a reminder, the IC50 is the concentration that inhibits the measured activity by half.

These results are taken from patent publication US10385056B2, “4-substituted pyrrolo[2,3-d]pyrimidine compound and use thereof” (JIANGSU CAREFREE PHARMACEUTICAL CO., LTD, priority 2014, dated 2019).

The target in one assay is JAK1 (Homo sapiens, UniProt P23458). In words: Caliper Mobility Shift Assay, kinase inhibition. The class given is biochemical. The following applies: ATP by Km value.
The next assay concerns the target JAK2 (Homo sapiens, UniProt O60674). In words: Caliper Mobility Shift Assay, kinase inhibition. Conditions: ATP by Km value. The class given is biochemical.
The target in the next assay is T1, JAK3 (Homo sapiens, UniProt P52333).
T1 sequence (P52333 1-1124): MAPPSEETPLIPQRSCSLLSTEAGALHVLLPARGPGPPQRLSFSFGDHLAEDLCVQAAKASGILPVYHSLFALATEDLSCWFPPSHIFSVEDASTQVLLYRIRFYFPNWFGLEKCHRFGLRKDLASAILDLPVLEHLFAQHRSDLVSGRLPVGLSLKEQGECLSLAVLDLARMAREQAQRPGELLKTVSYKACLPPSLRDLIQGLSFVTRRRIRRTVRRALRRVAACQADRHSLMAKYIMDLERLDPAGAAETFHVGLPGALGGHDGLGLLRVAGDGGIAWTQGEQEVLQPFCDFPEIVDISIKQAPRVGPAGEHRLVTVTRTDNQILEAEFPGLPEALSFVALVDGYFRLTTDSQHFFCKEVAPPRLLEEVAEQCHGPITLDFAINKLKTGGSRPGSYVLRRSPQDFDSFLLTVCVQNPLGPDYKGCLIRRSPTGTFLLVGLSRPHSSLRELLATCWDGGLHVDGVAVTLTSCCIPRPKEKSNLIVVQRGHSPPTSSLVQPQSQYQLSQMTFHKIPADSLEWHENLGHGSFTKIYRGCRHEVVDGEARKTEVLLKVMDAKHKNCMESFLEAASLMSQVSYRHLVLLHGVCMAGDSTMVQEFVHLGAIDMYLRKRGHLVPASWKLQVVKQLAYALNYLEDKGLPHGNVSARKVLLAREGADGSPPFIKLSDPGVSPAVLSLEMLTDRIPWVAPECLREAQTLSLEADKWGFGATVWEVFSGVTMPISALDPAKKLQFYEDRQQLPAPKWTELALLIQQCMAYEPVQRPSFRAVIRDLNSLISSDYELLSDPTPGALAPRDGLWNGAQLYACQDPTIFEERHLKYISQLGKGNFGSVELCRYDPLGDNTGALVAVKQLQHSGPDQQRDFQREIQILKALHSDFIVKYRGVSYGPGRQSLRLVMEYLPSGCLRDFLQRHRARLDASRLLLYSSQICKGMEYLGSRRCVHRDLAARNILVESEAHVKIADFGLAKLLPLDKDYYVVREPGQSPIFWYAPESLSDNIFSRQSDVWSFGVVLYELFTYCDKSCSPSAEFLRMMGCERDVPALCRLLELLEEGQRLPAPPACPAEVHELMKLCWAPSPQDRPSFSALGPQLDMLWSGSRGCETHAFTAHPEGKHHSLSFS
In words: Caliper Mobility Shift Assay, kinase inhibition. The class given is biochemical. Conditions: ATP by Km value.

In another assay the test system is phosphorylated JAK1. In words: CTLL-2 cells, IL-2 stimulated, Western blot of phosphorylation. The class given is cell-based. The following applies: Mus musculus, starved 6 h with compound, IL-2 150 U/mL 10 min, phosphorylated JAK1 by Western blot, read-out: IC50 g (nM) JAK1. As to the method:
(§1) Incubating for 10 min and collecting cells. Adding cell lysis buffer for cell lysis. Collecting protein to perform WEST-Blot detection, detecting phosphorylated JAK1, the phosphorylation of JAK2 and the phosphorylated STAT5, and obtaining the IC50 value.
A general note: In western blotting, separated proteins are transferred to a membrane and probed.

In the next assay the test system is phosphorylated STAT5. The description is as above. The class given is cell-based. The following applies: Mus musculus, starved 6 h with compound, IL-2 150 U/mL 10 min, phosphorylated STAT5 by Western blot, read-out: IC50 g (nM) STAT5. As to the method: as §1
A further assay relates to phosphorylation of JAK2. Described as above. The class given is cell-based. Conditions: Mus musculus, starved 6 h with compound, IL-2 150 U/mL 10 min, phosphorylation of JAK2 by Western blot, read-out: IC50 g (nM) JAK2. The protocol: as §1
For another assay, the system named is Jurkat cells. The experiment in a line: Inhibition of cell proliferation of human lymphocytoma (CCK-8). The class given is cell-based. Conditions: 48 h, CCK-8, 450 nm absorption. As to the method:
Spreading the Jurkat cells out for in-vitro cultivation on a 96-well plate with 1500 cells in each well, making the highest concentration of the compound be 50 μM in the cultivation system, and diluting the drug concentration according to 10-time step dilution.

The subject of assay [1] is rat with rheumatoid arthritis. In words: Collagen-induced rheumatoid arthritis model, arthritis score. The class given is in vivo. The following applies: DBA/1J rat, bovine Type II collagen/CFA model, intragastric administration, scored 2 weeks after administration, 1-4 scoring method. As to the method:
For the function of the compound inhibiting rheumatoid arthritis, selecting DBA/1J rat, carrying out subcutaneous injection after complete emulsion of 50 ug of bovine Type II collagen and isometric complete Freund's adjuvant (CFA). Strengthening immunization once 21 days after adequate emulsion of 50 ug of same antigen and incomplete Freund's adjuvant (IFA). Starting observation and recording from the 45th day. Using 1-4 scoring method: 1 score, normal; 2 scores, swelling of one joint; 3 scores, swelling of more than one joint but not all joints; 4 scores, severe swelling or stiffness of the whole claw. Adding scores of all claws to obtain the total score of arthritis in rat. Showing successful model establishment when the total joint score of the rat is more than 1. After successfully establishing the model of rat with rheumatoid arthritis, using the compound of the invention to feed the rat by intragastric administration and scoring arthritis of the rat 2 weeks after administration.

JAK1, sequence (P23458 whole entry, species assumed): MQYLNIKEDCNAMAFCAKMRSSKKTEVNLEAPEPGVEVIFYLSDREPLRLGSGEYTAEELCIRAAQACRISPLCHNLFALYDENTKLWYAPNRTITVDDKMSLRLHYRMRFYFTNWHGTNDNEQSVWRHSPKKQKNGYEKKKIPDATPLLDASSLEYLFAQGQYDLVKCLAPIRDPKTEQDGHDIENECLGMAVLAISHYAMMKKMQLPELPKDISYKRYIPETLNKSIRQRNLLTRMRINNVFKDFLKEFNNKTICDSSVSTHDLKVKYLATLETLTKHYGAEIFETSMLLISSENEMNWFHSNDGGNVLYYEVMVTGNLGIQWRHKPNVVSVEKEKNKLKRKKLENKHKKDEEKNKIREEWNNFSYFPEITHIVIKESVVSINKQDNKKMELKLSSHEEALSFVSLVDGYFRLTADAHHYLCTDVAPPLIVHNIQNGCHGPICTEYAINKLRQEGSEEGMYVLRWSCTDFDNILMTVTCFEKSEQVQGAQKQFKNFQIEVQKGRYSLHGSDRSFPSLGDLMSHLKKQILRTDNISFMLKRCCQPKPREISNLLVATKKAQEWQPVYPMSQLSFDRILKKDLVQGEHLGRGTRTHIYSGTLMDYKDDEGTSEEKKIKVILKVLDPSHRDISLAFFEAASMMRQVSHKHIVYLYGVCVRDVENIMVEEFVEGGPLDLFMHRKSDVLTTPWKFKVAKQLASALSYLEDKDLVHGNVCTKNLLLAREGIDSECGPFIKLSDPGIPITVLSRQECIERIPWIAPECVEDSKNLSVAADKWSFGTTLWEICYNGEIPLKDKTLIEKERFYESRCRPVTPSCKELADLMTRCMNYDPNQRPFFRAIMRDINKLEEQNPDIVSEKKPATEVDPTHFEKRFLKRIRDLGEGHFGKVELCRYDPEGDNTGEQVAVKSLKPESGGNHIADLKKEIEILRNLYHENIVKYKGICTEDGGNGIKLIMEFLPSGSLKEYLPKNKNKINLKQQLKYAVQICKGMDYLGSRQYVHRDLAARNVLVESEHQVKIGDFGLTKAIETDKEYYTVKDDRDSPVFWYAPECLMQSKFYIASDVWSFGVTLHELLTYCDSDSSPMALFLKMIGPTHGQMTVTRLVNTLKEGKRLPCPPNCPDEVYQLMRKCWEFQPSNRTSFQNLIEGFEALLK
JAK2, sequence (O60674 whole entry, species assumed): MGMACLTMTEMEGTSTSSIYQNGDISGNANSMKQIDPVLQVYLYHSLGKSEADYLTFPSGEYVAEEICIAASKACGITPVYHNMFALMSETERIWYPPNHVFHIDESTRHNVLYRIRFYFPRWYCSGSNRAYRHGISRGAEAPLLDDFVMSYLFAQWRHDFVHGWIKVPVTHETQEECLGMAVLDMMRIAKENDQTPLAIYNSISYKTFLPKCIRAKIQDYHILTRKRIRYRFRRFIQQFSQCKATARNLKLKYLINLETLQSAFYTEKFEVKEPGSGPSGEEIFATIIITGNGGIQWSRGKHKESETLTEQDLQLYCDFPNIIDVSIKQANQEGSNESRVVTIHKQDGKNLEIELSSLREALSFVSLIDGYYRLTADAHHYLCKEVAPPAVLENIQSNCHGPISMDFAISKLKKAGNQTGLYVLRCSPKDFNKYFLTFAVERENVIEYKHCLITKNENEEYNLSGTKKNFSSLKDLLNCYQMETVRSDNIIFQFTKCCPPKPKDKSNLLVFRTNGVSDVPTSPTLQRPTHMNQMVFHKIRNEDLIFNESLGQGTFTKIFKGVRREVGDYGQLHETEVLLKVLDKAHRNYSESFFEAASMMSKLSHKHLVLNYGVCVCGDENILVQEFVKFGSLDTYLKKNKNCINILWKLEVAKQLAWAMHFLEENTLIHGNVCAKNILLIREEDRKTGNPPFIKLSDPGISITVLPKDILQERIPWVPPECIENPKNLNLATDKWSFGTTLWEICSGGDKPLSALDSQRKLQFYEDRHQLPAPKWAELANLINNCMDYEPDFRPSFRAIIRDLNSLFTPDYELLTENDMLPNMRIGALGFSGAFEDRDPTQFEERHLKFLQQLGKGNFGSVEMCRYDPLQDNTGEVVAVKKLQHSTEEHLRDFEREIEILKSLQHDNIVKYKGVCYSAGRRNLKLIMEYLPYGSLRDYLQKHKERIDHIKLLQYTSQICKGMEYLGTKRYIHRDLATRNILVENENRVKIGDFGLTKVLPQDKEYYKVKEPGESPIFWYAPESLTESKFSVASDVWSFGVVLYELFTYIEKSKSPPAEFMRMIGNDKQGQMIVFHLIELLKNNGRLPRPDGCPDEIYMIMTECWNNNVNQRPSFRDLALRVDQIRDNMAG

On to `CN(C)S(=O)(=O)N1CC(CC#N)(n2cc(-c3ncnc4[nH]ccc34)c3ccccc32)C1` [Example 7], for which the IC50 is 15 nM on JAK1; 1.5 nM on JAK2; 116 nM at JAK3; 45 nM in the assay with phosphorylated JAK1; 214 nM with phosphorylated STAT5; 9.6 nM in the assay with phosphorylation of JAK2. For the same molecule, half-maximal inhibition with Jurkat cells (IC50) required 123 nM. Besides, in assay [1], the Score of arthritis is 2.5.

As for `CCS(=O)(=O)N1CC(CC#N)(n2cc(-c3ncnc4[nH]ccc34)c3ccc(F)cc32)C1` [Example 20, 2-(1-(ethylsulfonyl)-3-(6-fluoro-3-(7H-pyrrole[2,3-d]pyrimidine-4-yl)-1H-indole-1-yl)azetidine-3-yl)acetonitrile], the IC50 on JAK1 was found to be 0.5 nM; on JAK2 it was 0.61 nM; at JAK3, 28 nM; in the assay with phosphorylated JAK1 it was 18.5 nM; with phosphorylated STAT5, 309 nM; in the assay on phosphorylation of JAK2, 15.2 nM. Further, in the assay on Jurkat cells, inhibition was half-maximal at 225 nM (IC50). The Score of arthritis in assay [1] worked out at 1.6.

As to `CCS(=O)(=O)N1CC(CC#N)(n2cc(-c3ncnc4[nH]ccc34)cn2)C1` [Baricitinib, reference compound], the Score of arthritis in assay [1] is reported as 2.4.

Turning to `CCCCS(=O)(=O)N1CC(CC#N)(n2cc(-c3ncnc4[nH]ccc34)c3ccccc32)C1` [Example 6, 2-(3-(3-(7H-pyrrole[2,3-d]pyrimidine-4-yl)-1H-indole-1-yl)-1-(butylsulfonyl)azetidine-3-yl)acetonitrile], the IC50 at JAK1 came out at 22 nM; on JAK2, 7.1 nM; at JAK3, 200 nM; in the assay on phosphorylated JAK1, 22 nM; in the assay on phosphorylated STAT5, 322 nM; in the assay on phosphorylation of JAK2 it was 8 nM. Moreover, the IC50 in the assay with Jurkat cells came out at 458 nM. Also, the Score of arthritis in assay [1] worked out at 2.3.

In the case of `CCS(=O)(=O)N1CC(CC#N)(n2cc(-c3ncnc4[nH]ccc34)c3cc(OC)ccc32)C1` [Example 64, 2-(1-(ethylsulfonyl)-3-(5-methoxyl-3-(7H-pyrrole[2,3-d]pyrimidine-4-yl)-1H-indole-1-yl)azetidine-3-yl)acetonitrile], the IC50 on JAK1 amounted to 23 nM; on JAK2, 2.9 nM; at JAK3, 262 nM; in the assay with phosphorylated JAK1, 42.9 nM; in the assay with phosphorylated STAT5, 201 nM; in the assay on phosphorylation of JAK2, 28.7 nM. This molecule displayed an IC50 in the assay with Jurkat cells of 136 nM. The same molecule gave a Score of arthritis in assay [1] of 2.3.
